{
  "source": "patent US20220403001A1",
  "about": "“PDE5 DERIVED REGULATORY CONSTRUCTS AND METHODS OF USE IN IMMUNOTHERAPY” (Obsidian Therapeutics, Inc., priority 2018, published 2022)",
  "key": {"[1]": {"tested_on": "hPDE5 mutants", "test": "GFP expression (MFI) by FACS in HEK293 cells expressing hPDE5 constructs", "quoted_text": "The mutant library was ligated in frame with an AcGFP reporter at C-terminus and cloned into pLVX-IRES—Puro vectors. […] DNA was extracted from the cell pool, cloned into vectors, and transformed into E. coli. Individual clones were sequenced and cloned in frame with a linker [sequence] […] HEK293 cells were transduced with individual clones and selected with puromycin.\nThe GFP expression in cells expressing hPDE5 constructs was measured by FACS.\nThe stability of hPDE5 mutants was measured using FACS and mean fluorescence intensity (MFI) of GFP was calculated."}, "[2]": {"biological_target": "T1, hPDE5 mutants (Homo sapiens, UniProt O76074)", "test": "Western blot of AcGFP/GFP protein levels in HCT 116 cells expressing hPDE5 mutants", "type": "cell-based", "design": "GFP protein levels (western blot); fused on or other part: AcGFP reporter through a linker", "settings": "vardenafil vs DMSO, HCT 116, R732 mutants", "procedure": "Protein expression analysis of the combination mutants was performed in parallel via western blot. […] GAPDH levels were also analyzed to ensure even protein loading."}, "[3]": {"biological_target": "T1, hPDE5 mutants", "test": "GFP MFI by FACS in HCT116 cells transduced with hPDE5 constructs", "type": "cell-based", "procedure": "(§1) Desirable qualities of a DD include, low expression of the SRE in the absence of ligand and ligand dependent stabilization of the SRE. Constructs were generated using DDs linked to GFP using an SG linker. […] The mean fluorescence intensity (MFI) of GFP was analyzed by FACS. […] Destabilizing mutation coefficient less than 1 are desirable.\n(§2) Mean fluorescence intensity (MFI) was measured by FACS. […] Destabilizing mutation coefficient ratios less than 1 are desirable.\n(§3) Mean fluorescence intensity (MFI) was measured by FACS. […] Destabilizing mutation co-efficient ratios less than 1 are desirable.\n(§4) Mean fluorescence intensity (MFI) was measured by FACS. […] Destabilizing mutation coefficient less than 1 are desirable.\nas §4\n(§5) Mean fluorescence intensity (MFI) of GFP was measured by FACS.\n(§6) Mean fluorescence intensity (MFI) was measured by FACS.\n(§7) The media containing the ligand was removed and fresh media without the ligand was added.\n(§8) The properties of the DDs were analyzed in the presence and absence of ligands via FACS as previously described.\n(§9) GFP fluorescence was measured by FACS.\n(§10) The properties of the DDs were analyzed via FACS both in the presence and absence of ligands.\nas §9"}, "[4]": {"tested_on": "hPDE5 mutants", "test": "GFP MFI by FACS in HCT116 cells transduced with hPDE5 constructs", "type": "cell-based, human", "settings": "for MFI: 48 hours, HCT 116 cells", "procedure": "as §1, §2, §3, §4, §4, §5, §6, §7, §8, §9, §10, §9"}, "[5]": {"settings": "Sildenafil 0.0005 μM, 48 h, HEK293"}, "[6]": {"settings": "Sildenafil 3.33 μM, 48 h, HEK293"}, "[7]": {"settings": "Sildenafil 10 μM, 48 h, HEK293 (dose titration)"}, "[8]": {"settings": "Sildenafil 10 μM, 48 h, HEK293 (time course)"}, "[9]": {"settings": "Vardenafil 0.0005 μM, 48 h, HEK293"}, "[10]": {"settings": "Vardenafil 3.33 μM, 48 h, HEK293"}, "[11]": {"settings": "Vardenafil (10 μM), 48 h, Table 25, cell line not given in table"}},
  "data": [
    {"substance": "OT-001083: hPDE5-Y728L AcGFP construct", "values": [
      {"measurement": "MFI", "setting": "[1]; [5]", "value": 4422},
      {"measurement": "Stabilization ratio", "setting": "[1]; [5]", "value": 1.01},
      {"measurement": "MFI", "setting": "[1]; [6]", "value": 17960},
      {"measurement": "Stabilization ratio", "setting": "[1]; [6]", "value": 4.09},
      {"measurement": "MFI", "setting": "[1]; Sildenafil 10 μM, 2 h, HEK293", "value": 7290},
      {"measurement": "Stabilization ratio", "setting": "[1]; Sildenafil 10 μM, 2 h, HEK293", "value": 1.37},
      {"measurement": "MFI", "setting": "[1]; Sildenafil 10 μM, 4 h, HEK293", "value": 8675},
      {"measurement": "Stabilization ratio", "setting": "[1]; Sildenafil 10 μM, 4 h, HEK293", "value": 1.64},
      {"measurement": "MFI", "setting": "[1]; Sildenafil 10 μM, 6 h, HEK293", "value": 10929},
      {"measurement": "Stabilization ratio", "setting": "[1]; Sildenafil 10 μM, 6 h, HEK293", "value": 2.06},
      {"measurement": "MFI", "setting": "[1]; Sildenafil 10 μM, 16 h, HEK293", "value": 19034},
      {"measurement": "Stabilization ratio", "setting": "[1]; Sildenafil 10 μM, 16 h, HEK293", "value": 3.59},
      {"measurement": "MFI", "setting": "[1]; Sildenafil 10 μM, 24 h, HEK293", "value": 27246},
      {"measurement": "Stabilization ratio", "setting": "[1]; Sildenafil 10 μM, 24 h, HEK293", "value": 5.14},
      {"measurement": "MFI", "setting": "[1]; [7]", "value": 32480},
      {"measurement": "Stabilization ratio", "setting": "[1]; [7]", "value": 7.40},
      {"measurement": "MFI", "setting": "[1]; [8]", "value": 34796},
      {"measurement": "Stabilization ratio", "setting": "[1]; [8]", "value": 6.56},
      {"measurement": "MFI", "setting": "[1]; [9]", "value": 7894},
      {"measurement": "Stabilization ratio", "setting": "[1]; [9]", "value": 0.99},
      {"measurement": "MFI", "setting": "[1]; [10]", "value": 134306},
      {"measurement": "Stabilization ratio", "setting": "[1]; [10]", "value": 16.85},
      {"measurement": "MFI", "setting": "[1]; Vardenafil 10 μM, 48 h, HEK293", "value": 166236},
      {"measurement": "Stabilization ratio", "setting": "[1]; Vardenafil 10 μM, 48 h, HEK293", "value": 20.86},
      {"measurement": "Stabilization ratio", "setting": "[1]; Vardenafil (1 μM), 48 h, Table 25, cell line not given in table", "value": 13.26},
      {"measurement": "MFI", "setting": "[1]; Vardenafil (1 μM), 48 h, Table 25, cell line not given in table (HEK293, HCT-116, SKOV-3)", "value": 68816},
      {"measurement": "MFI", "setting": "[1]; [11]", "value": 123150},
      {"measurement": "Stabilization ratio", "setting": "[1]; [11]", "value": 23.72}
    ]},
    {"substance": "OT-001187: hPDE5 R732A AcGFP construct", "values": [
      {"measurement": "GFP protein levels (western blot)", "setting": "[2]", "value": "strong stabilization of GFP levels"},
      {"measurement": "MFI", "setting": "[3]; Table 44, Vardenafil 0.01 μM, 48 h, HCT 116", "value": 2551},
      {"measurement": "MFI", "setting": "[3]; Table 44, Vardenafil 0.04 μM, 48 h, HCT 116", "value": 8345},
      {"measurement": "MFI", "setting": "[3]; Table 44, Vardenafil 3.33 μM, 48 h, HCT 116", "value": 16783},
      {"measurement": "MFI", "setting": "[3]; Table 44, Vardenafil 10 μM, 48 h, HCT 116", "value": 18945},
      {"measurement": "MFI", "setting": "[3]; Table 44, Vardenafil 30 μM, 48 h, HCT 116", "value": 22548},
      {"measurement": "MFI", "setting": "[3]; Table 44, Vardenafil 1000 μM, 48 h, HCT 116", "value": 22548},
      {"measurement": "MFI", "setting": "[3]; Table 45, Sildenafil 0.01 μM, 48 h, HCT 116", "value": 808},
      {"measurement": "MFI", "setting": "[3]; Table 45, Sildenafil 0.04 μM, 48 h, HCT 116", "value": 1025},
      {"measurement": "MFI", "setting": "[3]; Table 45, Sildenafil 3.33 μM, 48 h, HCT 116", "value": 3769},
      {"measurement": "MFI", "setting": "[3]; Table 45, Sildenafil 10 μM, 48 h, HCT 116", "value": 4716},
      {"measurement": "MFI", "setting": "[3]; Table 45, Sildenafil 30 μM, 48 h, HCT 116", "value": 5694},
      {"measurement": "MFI", "setting": "[3]; Table 45, Sildenafil 1000 μM, 48 h, HCT 116", "value": 5694},
      {"measurement": "MFI", "setting": "[3]; Tadalafil 0.01 μM, 48 hours, HCT 116 cells", "value": 752},
      {"measurement": "Vardenafil Stabilization ratio", "setting": "[3]; hotspot constructs, 1 μM Vardenafil", "value": 4.87},
      {"measurement": "Sildenafil Stabilization ratio", "setting": "[3]; hotspot constructs, 10 μM Sildenafil", "value": 1.21},
      {"measurement": "GFP by FACS, Sildenafil 10 μM", "setting": "[3]; hotspot constructs, HCT116", "value": 348},
      {"measurement": "GFP by FACS, Vardenafil 1 μM", "setting": "[3]; hotspot constructs, HCT116", "value": 853},
      {"measurement": "MFI", "setting": "[4]; Tadalafil 11.11 μM", "value": 5126},
      {"measurement": "MFI", "setting": "[4]; Tadalafil 33.33 μM", "value": 6264},
      {"measurement": "MFI", "setting": "[4]; Tadalafil 100 μM", "value": 6301},
      {"measurement": "MFI", "setting": "[4]; Tadalafil 1000 μM", "value": 6301},
      {"measurement": "Sildenafil Destabilizing mutation coefficient", "setting": "[4]; hotspot constructs, DMSO control of Sildenafil, vs OT-001075", "value": 0.29},
      {"measurement": "Vardenafil Destabilizing mutation coefficient", "setting": "[4]; hotspot constructs, DMSO control of Vardenafil, vs OT-001075", "value": 1.09},
      {"measurement": "GFP by FACS, Sildenafil 0 μM (DMSO)", "setting": "[4]; hotspot constructs, HCT116, DMSO control of Sildenafil", "value": 288},
      {"measurement": "GFP by FACS, Vardenafil 0 μM (DMSO)", "setting": "[4]; hotspot constructs, HCT116, DMSO control of Vardenafil", "value": 175}
    ]}
  ]
}
